In one experiment the target is T1, plasma kallikrein (Homo sapiens, UniProt P03952).
T1 construct: from tissue
Put plainly: Neat human plasma assay, FXIIa contact pathway-activated, PFR-AMC substrate. Format: biochemical. The note with it: citrated human plasma 78% final, 10 nM human FXIIa, 100 μM PFR-AMC; read-out: Human Plasma Assay: IC90. The gist of the method: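 Citrated human plasma (78% final) with compound, contact-activated by 10 nM human FXIIa in pKal buffer pH 7.5, with 100 μM PFR-AMC. Fluorescence (360/480 nm) followed 5 min at room temperature; rates versus concentration fitted by 4-parameter equation for IC50/IC90.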

Experiment [1] addresses human activated kallikrein enzyme (Homo sapiens, UniProt P03952). Put plainly: Plasma kallikrein inhibition, fluorogenic PFR-AMC substrate, 500 pM activated kallikrein format. Format: biochemical. The note with it: 500 pM activated kallikrein, 300 uM PFR-AMC, 30 min preincubation, 10 min reaction; read-out: Primary Dose Response Assay: Average EC50. The gist of the method: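 500 pM enz + cpd, 30 min RT preinc; start w/ PFR-AMC 300 uM; 10 min RT; Ex380/Em460. Buffer: Tris 20 mM pH 7.5, EDTA 1 mM, NaCl 150 mM, PEG-400 0.1%, Triton 0.1%. EC50.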

The structures appear in SMILES notation.

The term IC90 denotes the concentration needed for an effect of 90%. For orientation: EC50 means the concentration at which the effect is half-maximal.

T1 sequence (P03952 391-638 limits assumed): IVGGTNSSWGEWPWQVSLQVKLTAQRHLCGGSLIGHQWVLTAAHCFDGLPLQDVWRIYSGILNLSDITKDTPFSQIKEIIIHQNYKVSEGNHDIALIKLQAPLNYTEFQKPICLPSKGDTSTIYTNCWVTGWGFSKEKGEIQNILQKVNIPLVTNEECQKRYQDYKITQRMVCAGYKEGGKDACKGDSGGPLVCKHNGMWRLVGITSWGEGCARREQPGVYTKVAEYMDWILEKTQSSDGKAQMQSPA
T1 sequence (P03952 20-390 partner limits assumed): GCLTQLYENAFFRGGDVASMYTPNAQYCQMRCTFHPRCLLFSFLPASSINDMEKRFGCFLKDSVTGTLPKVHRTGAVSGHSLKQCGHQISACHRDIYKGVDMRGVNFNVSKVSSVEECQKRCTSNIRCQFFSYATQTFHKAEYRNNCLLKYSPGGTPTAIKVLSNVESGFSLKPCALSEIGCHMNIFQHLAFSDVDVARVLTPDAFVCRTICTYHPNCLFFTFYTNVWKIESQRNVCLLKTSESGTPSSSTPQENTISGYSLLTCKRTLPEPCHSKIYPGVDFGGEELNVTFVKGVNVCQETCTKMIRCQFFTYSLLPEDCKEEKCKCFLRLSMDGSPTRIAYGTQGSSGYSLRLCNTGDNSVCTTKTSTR
human activated kallikrein enzyme, sequence (P03952 391-638 limits assumed): as the sequence (P03952 391-638 limits assumed) above
human activated kallikrein enzyme, sequence (P03952 20-390 partner limits assumed): as the sequence (P03952 20-390 partner limits assumed) above

As for `Cc1ccnc([C@H]2C[C@@H]2C(=O)Nc2ncc(C(F)(F)F)c(OCc3cn4cc(C5CC5)cc(N5CC(=O)N(C)C5=O)c4n3)n2)n1` (racemic) [Example 628, rac-(1S*,2S*)—N-(4-((6-cyclopropyl-8-(3-methyl-2,4-dioxoimidazolidin-1-yl)imidazo[1,2-a]pyridin-2-yl)methoxy)-5-(trifluoromethyl)pyrimidin-2-yl)-2-(4-methylpyrimidin-2-yl)cyclopropane-1-carboxamide], on plasma kallikrein, the IC90 lay within 400 to 1500 nM. The EC50 in experiment [1] was < 1 nM.
For the compound `CN1C(=O)CN(c2cc(C3CC3)cn3cc(CNc4cc(NC(=O)[C@H]5C[C@@H]5c5nccc(CF)n5)ncn4)nc23)C1=O` (racemic) [Example I-163, rac-(1S*,2S*)-N-(6-(((6-cyclopropyl-8-(3-methyl-2,4-dioxoimidazolidin-1-yl)imidazo[1,2-a]pyridin-2-yl)methyl)amino)pyrimidin-4-yl)-2-(4-(fluoromethyl)pyrimidin-2-yl)cyclopropane-1-carboxamide], at plasma kallikrein, the IC90 was in the range of 400 to 1500 nM. Also, the EC50 in experiment [1] was < 1 nM.
In the same order, the values of `CN1C(=O)CN(c2cc(C3CC3)cn3cc(CNc4cc(NC(=O)[C@H]5C[C@@H]5c5nccc(C(F)F)n5)ncn4)nc23)C1=O` (racemic) [Example I-164, rac-(1S*,2S*)-N-(6-(((6-cyclopropyl-8-(3-methyl-2,4-dioxoimidazolidin-1-yl)imidazo[1,2-a]pyridin-2-yl)methyl)amino)pyrimidin-4-yl)-2-(4-(difluoromethyl)pyrimidin-2-yl)cyclopropane-1-carboxamide] are 400 to 1500 nM and 1 to 10 nM.
Taken in the same sequence, the figures for `Cc1ccc(C#N)c([C@H]2C[C@@H]2C(=O)Nc2cc(NCc3cn4cc(C5CC5)cc(N5CC(=O)N(C)C5=O)c4n3)ncn2)n1` (racemic) [Example I-166, rac-(1S*,2S*)-2-(3-cyano-6-methylpyridin-2-yl)-N-(6-(((6-cyclopropyl-8-(3-methyl-2,4-dioxoimidazolidin-1-yl)imidazo[1,2-a]pyridin-2-yl)methyl)amino)pyrimidin-4-yl)cyclopropane-1-carboxamide] were 400 to 1500 nM and < 1 nM.
Taken in the same sequence, the figures for `CN1C(=O)CN(c2cc(C3CC3)cn3cc(CNc4cc(NC(=O)[C@H]5C[C@@H]5c5nc(Cl)ccc5C#N)ncn4)nc23)C1=O` (racemic) [Example I-167, rac-(1S*,2S*)-2-(6-chloro-3-cyanopyridin-2-yl)-N-(6-(((6-cyclopropyl-8-(3-methyl-2,4-dioxoimidazolidin-1-yl)imidazo[1,2-a]pyridin-2-yl)methyl)amino)pyrimidin-4-yl)cyclopropane-1-carboxamide] were 400 to 1500 nM and < 1 nM.
As to `CN1C(=O)CN(c2cc(C3CC3)cn3cc(CNc4cc(NC(=O)[C@H]5C[C@@H]5c5nccc(Cl)n5)ncn4)nc23)C1=O` (racemic) [Example I-168, rac-(1S*,2S*)-2-(4-chloropyrimidin-2-yl)-N-(6-(((6-cyclopropyl-8-(3-methyl-2,4-dioxoimidazolidin-1-yl)imidazo[1,2-a]pyridin-2-yl)methyl)amino)pyrimidin-4-yl)cyclopropane-1-carboxamide], the IC90 at plasma kallikrein was 400 to 1500 nM. Further, the EC50 in experiment [1] was < 1 nM.
As to `CN1C(=O)CN(c2cc(C3CC3)cn3cc(CNc4cc(NC(=O)[C@H]5C[C@@H]5c5cc(Cl)ccc5C#N)ncn4)nc23)C1=O` (racemic) [Example I-170, rac-(1S*,2S*)-2-(5-chloro-2-cyanophenyl)-N-(6-(((6-cyclopropyl-8-(3-methyl-2,4-dioxoimidazolidin-1-yl)imidazo[1,2-a]pyridin-2-yl)methyl)amino)pyrimidin-4-yl)cyclopropane-1-carboxamide], on plasma kallikrein, the IC90 fell in the range of 1500 to 10000 nM. The EC50 in experiment [1] was < 1 nM.
Regarding `O=C(Nc1cc(NCc2cn3cc(C4CC4)cc(N4CCOC4=O)c3n2)ncn1)[C@H]1C[C@@H]1c1cc(Cl)ccn1` (racemic) [Example I-173, rac-(1S*,2S*)-2-(4-chloropyridin-2-yl)-N-(6-(((6-cyclopropyl-8-(2-oxooxazolidin-3-yl)imidazo[1,2-a]pyridin-2-yl)methyl)amino)pyrimidin-4-yl)cyclopropane-1-carboxamide], the IC90 at plasma kallikrein is 400 to 1500 nM. In addition, the EC50 in experiment [1] is < 1 nM.
Take `CN1CCN(c2cc(C3CC3)cn3cc(CNc4cc(NC(=O)[C@H]5C[C@@H]5c5cc(Cl)ccn5)ncn4)nc23)CC1` (racemic) [Example I-192, rac-(1S*,2S*)-2-(4-chloropyridin-2-yl)-N-(6-(((6-cyclopropyl-8-(4-methylpiperazin-1-yl)imidazo[1,2-a]pyridin-2-yl)methyl)amino)pyrimidin-4-yl)cyclopropane-1-carboxamide]: on plasma kallikrein, the IC90 was 1500 to 10000 nM. For the same compound, the EC50 in experiment [1] was < 1 nM.
Take `CN1CCN(c2cc(C3CC3)cn3cc(CNc4cc(NC(=O)[C@H]5C[C@@H]5c5cc(Cl)ccn5)ncn4)nc23)C(=O)C1` (racemic) [Example I-195, rac-(1S*,2S*)-2-(4-chloropyridin-2-yl)-N-(6-(((6-cyclopropyl-8-(4-methyl-2-oxopiperazin-1-yl)imidazo[1,2-a]pyridin-2-yl)methyl)amino)pyrimidin-4-yl)cyclopropane-1-carboxamide]: the IC90 at plasma kallikrein lay in the range of 400 to 1500 nM. In addition, the EC50 in experiment [1] is < 1 nM.
In the same order, the values of `Cc1ccnc([C@H]2C[C@@H]2C(=O)Nc2cc(NCc3cn4cc(C5CC5)cc(N5CC(=O)N(C)C5=O)c4n3)ccn2)n1` (racemic) [Example I-208, rac-(1S*,2S*)-N-(4-(((6-cyclopropyl-8-(3-methyl-2,4-dioxoimidazolidin-1-yl)imidazo[1,2-a]pyridin-2-yl)methyl)amino)pyridin-2-yl)-2-(4-methylpyrimidin-2-yl)cyclopropane-1-carboxamide] are < 400 nM and < 1 nM.
Taken in the same sequence, the figures for `O=C(Nc1cc(NCc2cn3cc(C4CC4)ccc3n2)ccn1)[C@@]1(F)C[C@@H]1c1cccc(Cl)c1` (racemic) [Example I-217, rac-(1S*,2S*)-2-(3-chlorophenyl)-N-(4-(((6-cyclopropylimidazo[1,2-a]pyridin-2-yl)methyl)amino)pyridin-2-yl)-1-fluorocyclopropane-1-carboxamide] were 10000 to 48000 nM and 1 to 10 nM.
Taken in the same sequence, the figures for `O=C(Nc1cc(NCc2cn3cc(C4CC4)ccc3n2)ccn1)[C@H]1C[C@@H]1c1cc(Cl)cs1` (racemic) [Example I-219, rac-(1S*,2S*)-2-(4-chlorothiophen-2-yl)-N-(4-(((6-cyclopropylimidazo[1,2-a]pyridin-2-yl)methyl)amino)pyridin-2-yl)cyclopropane-1-carboxamide] were 10000 to 48000 nM and 1 to 10 nM.
In the case of `Nc1ccc(Cl)cc1[C@H]1C[C@@H]1C(=O)Nc1cc(NCc2cn3cc(C4CC4)ccc3n2)ccn1` (racemic) [Example I-222, rac-(1S*,2S*)-2-(2-amino-5-chlorophenyl)-N-(4-(((6-cyclopropylimidazo[1,2-a]pyridin-2-yl)methyl)amino)pyridin-2-yl)cyclopropane-1-carboxamide], the 90% effect concentration (IC90) at plasma kallikrein was > 48000 nM. The EC50 in experiment [1] lay within 1 to 10 nM.
In the case of `O=C(Nc1cc(NCc2cn3cc(C4CC4)ccc3n2)ccn1)[C@H]1C[C@@H]1c1cc(Cl)ccc1[N+](=O)[O-]` (racemic) [Example I-223, rac-(1S*,2S*)-2-(5-chloro-2-nitrophenyl)-N-(4-(((6-cyclopropylimidazo[1,2-a]pyridin-2-yl)methyl)amino)pyridin-2-yl)cyclopropane-1-carboxamide], at plasma kallikrein, the IC90 is > 48000 nM. Further, the EC50 in experiment [1] is < 1 nM.
In the same order, the values of `O=C(Nc1cc(NCc2cn3cc(C4CC4)cc(C4(O)COC4)c3n2)ccn1)[C@H]1C[C@@H]1c1cccc(Cl)c1` (racemic) [Example I-242, rac-(1S*,2S*)-2-(3-chlorophenyl)-N-(4-(((6-cyclopropyl-8-(3-hydroxyoxetan-3-yl)imidazo[1,2-a]pyridin-2-yl)methyl)amino)pyridin-2-yl)cyclopropane-1-carboxamide] are 1500 to 10000 nM and < 1 nM.
Turning to `COc1cnc(NC(=O)[C@H]2C[C@@H]2c2nccc(C)n2)nc1NCc1cn2cc(C3CC3)cc(N3CC(=O)N(C)C3=O)c2n1` (racemic) [Example I-244, rac-(1S*,2S*)-N-(4-(((6-cyclopropyl-8-(3-methyl-2,4-dioxoimidazolidin-1-yl)imidazo[1,2-a]pyridin-2-yl)methyl)amino)-5-methoxypyrimidin-2-yl)-2-(4-methylpyrimidin-2-yl)cyclopropane-1-carboxamide], the IC90 on plasma kallikrein is < 400 nM. Also, the concentration for a half-maximal effect (EC50) in experiment [1] was < 1 nM.
On to `Cc1ccnc([C@H]2C[C@@H]2C(=O)Nc2cc(NCc3cn4cc(C5CC5)cc(N5CC(=O)N(C)C5=O)c4n3)ncn2)n1` (racemic) [Example I-259, rac-(1S*,2S*)—N-(6-(((6-cyclopropyl-8-(3-methyl-2,4-dioxoimidazolidin-1-yl)imidazo[1,2-a]pyridin-2-yl)methyl)amino)pyrimidin-4-yl)-2-(4-methylpyrimidin-2-yl)cyclopropane-1-carboxamide], for which the IC90 at plasma kallikrein was < 400 nM. For the same compound, the EC50 in experiment [1] is < 1 nM.
Taken in the same sequence, the figures for `CN1C(=O)CN(c2cc(C3CC3)cn3cc(CNc4cc(NC(=O)[C@H]5C[C@@H]5c5cc(Cl)ccn5)ncn4)nc23)C1=O` (racemic) [Example I-262, rac-(1S*,2S*)-2-(4-chloropyridin-2-yl)-N-(6-(((6-cyclopropyl-8-(3-methyl-2,4-dioxoimidazolidin-1-yl)imidazo[1,2-a]pyridin-2-yl)methyl)amino)pyrimidin-4-yl)cyclopropane-1-carboxamide] were 400 to 1500 nM and < 1 nM.

For the origin of these results see patent publication US20240228488A1 (TAKEDA PHARMACEUTICAL COMPANY LIMITED, priority 2021, published 2024).
